One data set relates to ERα phosphorylation. In words: E2-induced ERα phosphorylation, Western blotting, MCF-7. As to conditions: 3 hours to 24 hours after E2. Format: cell-based, human. A general note: A western blot detects proteins with antibodies after separation by electrophoresis.
In data set [1] the test system is transcriptional activity of ERα (ERE). Description: ERE-luciferase reporter assay in MCF-7 cells. Format: cell-based, human. The settings on record: 10 nM E2 24 hours. As to the method:
FIG. 3-2 is a diagram illustrating promotion effect of PHB2 nuclear translocation and suppression effect of the transcriptional activation of ER by ERAP1-peptide treatment. (C) illustrates representative images of stained immune cells, showing the localization of the ERAP1-peptide (HA-tagged ERAP1-peptide) and PHB2. MCF-7 cells were treated with 10 μM HA-tagged ERAP1-peptide for 24 hours in the presence or in the absence of 10 nM E2. After the immobilization, the cells were subjected to immunonfluorescent staining using an anti-HA antibody, an anti-PHB2 antibody and DAPI (for discriminating the nucleus). The arrow indicates the nuclear-translocated ERAP1-peptide. […] Then, immediately, the cells were stimulated with 10 nM E2 for 24 hours. TAM indicates the tamoxifen treatment.
(§1) FIG. 3-3 is as diagram illustrating the results of the luciferase assay by which the inhibition effect of the ERAP1-peptide was evaluated. MCF-7 cells temporarily transfected with an ERE-luciferase reporter vector (F) or an AP-1-luciferase reporter vector (F) were treated with the ERAP1-peptide, the scramble peptide or the mutant peptide in the concentrations shown in the […]. Then, immediately, the cells were stimulated with 10 nM E2 for 24 hours. TAM indicates the tamoxifen treatment.
(§2) FIG. 4-3 is a diagram illustrating that the ERAP1-peptide promotes nuclear translocation of PHB2. (C) and (D) are figures that show the results of the luciferase assay by which the inhibition effect of the ERAP1-peptide on the ERα transcriptional activity was evaluated. MCF-7 cells temporarily transfected with an ERE-luciferase reporter vector (C) or an AP-1-luciferase reporter vector (D) were treated with the ERAP1-peptide in the concentrations shown in the figure or 10 nM tamoxifen. Then, immediately, the cells were stimulated with 10 nM E2 thr 24 hours.
(§3) For ERE reporter assay, MCF-7 cells were transfected with ERE reporter (SABiosciences, Frederick, Md., USA) in accordance with the instruction of the manufacturer. For AP-1 reporter assay, MCF-7 cells were transfected with AP-1 reporter (mouse IL-11 promoter comprising two tandem AP-1 sites subcloned into PGL2-basic vector), c-fos, c-Jun and pRL-TK as an internal standard. After 16 hours from the transfection, the culture medium was exchanged with an assay culture medium (Opti-MEM, 10% FBS, 0.1 mM NEAA, 0.1 mM Sodium pyruvate and 10 μg/ml insulin) After 24 hours from the transfection, the cells were treated with E2 and/or the ERAP1-peptide or 24 hours. The cells were harvested, and the activities of luciferase and Renilla-luciferase were evaluated using Promega dual luciferase reporter assay (Tokyo, Japan). In consideration of the transfection efficiency, all of the data were standardized by the activity of Renilla-luciferase.
Background: In a reporter assay the amount or activity of a reporter protein is the signal.

Data set [2] deals with transcriptional activity of ERα (AP-1). In words: AP-1-luciferase reporter assay in MCF-7 cells. Format: cell-based, human. The settings on record: 10 nM E2 24 hours. As to the method:
as §1, §2, §3

A further data set concerns KPL-3C tumor. In words: Inhibition of tumor proliferation in vivo, KPL-3C orthotopic transplant. The arrangement: species or system BALB/c nude mouse. The settings on record: for Ser39 phosphorylation of PHB2/REA in the tumor: 14 mg/kg; for antitumor effect (tumor volume): E2 6 μg/day, 2 weeks. Here is the method: FIG. 11-1 is a diagram illustrating that the ERAP1-peptide inhibits tumor proliferation in a mouse orthotopically transplanted with human breast cancer. (A) and (B) show the influence of the ERAP1-peptide on the tumor volume. […] were subcutaneously transplanted into the breast fat body of as BALB/c nude mouse. The treatment test (5 individuals/group) was initiated (day 0) when the volume of the tumor in the absence E2 reached about 50-80 mm^3. The ERAP1-peptide (14, 35 and 70 mg/kg), the scramble peptide (14, 35 and 70 mg/kg) or tamoxifen (4 mg/kg) was administered every day by intraperitoneal injection to a cancerous mouse orthotopically transplanted with KPL-3C tumor. At the same time, E2 (6 μg/day) was administered subcutaneously every day.
FIG. 11-3 is a diagram illustrating that the ERAP1-peptide inhibits tumor proliferation in a mouse orthotopically transplanted with human breast cancer. […] The mouse was euthanatized on day 14, and the tumor was removed, and the expression level of the downstream genes in each tumor was obtained by quantitative RT-PCR.
FIG. 11-4 is a diagram illustrating that the ERAP1-peptide inhibits tumor proliferation in a mouse orthotopically transplanted with human breast cancer.
FIG. 27 is a diagram illustrating the inhibition effect of the ERAP1-peptide on tumor proliferation in a mouse orthotopically transplanted with human breast cancer. […] KPL-3 cells were subcutaneously transplanted into the breast fat body of a BALB/c nude mouse. The treatment test (5 individuals/group) was initiated (day 0) when the volume of the tumor reached about 50-80 mm^3 in the absence of E2. To a cancerous mouse orthotopically transplanted with KPL-3C tumor, the ERAP1-peptide (Peptide: 14 mg/kg) or the ERAP1-scramble peptide (scrPeptide: 14 mg/kg) was administered every day by intraperitoneal injection. At the same time, E2 (6 μg/day) was administered subcutaneously every day. On day 14, the mouse was euthanatized, and the tumor was removed, and phosphorylation of PHB2/REA (S39) in each tumor was evaluated with immunoblotting analysis. […] The tamoxifen-resistant MCF7-cells (Tam-R MCF-7) were subcutaneously transplanted into the breast fat body of a BALB/c nude mouse, and the treatment test (5 individuals/group) was initiated (day 0) when the volume of the tumor reached about 50-80 mm^3 in the presence of tamoxifen (37 ng/day, 1.85 μg/kg). To a cancerous mouse orthotopically transplanted with Tam-R MCF-7 tumor, the ERAP1-peptide (Peptide: 3.5, 7 and 14 mg/kg) or the ERAP1-scramble peptide (scrPeptide: 14 mg/kg) was administered every day by intraperitoneal injection. At the same time, E2 (6 μg/day) was administered subcutaneously every day: Tam-R MCF-7 heterotransplanted tumor at day 21 and the mean tumor volume±SE (n=5) are shown. *P<0.05, **P<0.01, ***P<0.001.
KPL-3C cell suspension (1×10^7 cells/mouse) was mixed with the same amount of Matrigel (BD). This mixture was injected into the breast fat body of 6 weeks old female BALB/c nude mouse (CLEA Japan, Tokyo, Japan). The mouse was kept in a sterile isolated facility with a cycle of 12 hour light period/12 hour dark period, and freely fed with rodent food and water. The tumor was grown over 1 week until the size thereof reached 50 to 80 mm^3 (calculated as ½×(width×length^2)). Then, the mice were randomly divided into nine treatment groups (5 individuals/group): no treatment group, 6 μg/day E2 treatment group, E2+0.28 mg/day ERAP1-peptide treatment group, E2+0.7 mg/day ERAP1-peptide treatment group, E2+1.4 mg/day ERAP1-peptide treatment group, E2+0.28 mg/day of the scramble peptide treatment group, E2+0.7 mg/day of the scramble peptide treatment group, E2+1.4 mg/day of the scramble peptide treatment group, and E2+83 μg/day tamoxifen treatment group. The mouse was treated every day with 6 μg/day E2 solution (100 μl 2.2×10^−4 M) on the neck skin. […]

Setting [3] is: 14, 35, 70 mg/kg intraperitoneal every day.

This is an account of results in patent US9725490B2, “ERAP1-derived peptide and use thereof” (TOKUSHIMA UNIVERSITY, priority 2011, dated 2017).

Consider `CSCC[C@H](NC(=O)[C@H](CCC(N)=O)NC(=O)[C@H](CCCNC(=N)N)NC(=O)[C@H](CCCNC(=N)N)NC(=O)[C@H](CCCNC(=N)N)NC(=O)[C@H](CCCNC(=N)N)NC(=O)[C@H](CCCNC(=N)N)NC(=O)[C@H](CCCNC(=N)N)NC(=O)[C@H](CCCNC(=N)N)NC(=O)[C@H](CCCNC(=N)N)NC(=O)[C@H](CCCNC(=N)N)NC(=O)[C@H](CCCNC(=N)N)NC(=O)[C@@H](N)CCCNC(=N)N)C(=O)N[C@@H](CC(C)C)C(=O)N[C@@H](CO)C(=O)N[C@@H](CC(=O)O)C(=O)N[C@@H](CC(C)C)C(=O)N[C@H](C(=O)N[C@@H](CC(C)C)C(=O)N[C@@H](CCC(N)=O)C(=O)N[C@@H](CC(C)C)C(=O)N[C@@H](CCCNC(=N)N)C(=O)N[C@@H](CCC(N)=O)C(=O)N[C@@H](CCCNC(=N)N)C(=O)O)[C@@H](C)O` [ERAP1-peptide], for which, in the data set on ERα phosphorylation, the “E2-dependent phosphorylation of six sites of ERα” value is “suppressed to the same degree as that of no administration of E2”. Besides, in data set [1], the “transcriptional activity of ERα in ERE” value is on record as “suppressed the transcriptional activity of ERα”. Moreover, the “transcriptional activity of ERα in AP-1” value in data set [2] is “suppressed the transcriptional activity of ERα”. In the data set with KPL-3C tumor (tumor removed day 14), the “Ser39 phosphorylation of PHB2/REA in the tumor” value is “phosphorylation of Ser39 of PHB21/REA was confirmed”; the “expressions of ERα target genes PS2, cyclin D1, C-Myc, SP-1 in the tumor” value is listed as “completely suppressed”; the “phosphorylations of Akt and MAPK in the tumor” value was “suppression for the phosphorylations of the non-genomic activation signal routes, i.e., Akt and MAPK, was also confirmed”. In the data set with KPL-3C tumor (setting [3]), the “change of the body weight” value is given as “change of the body weight was not recognized” and the “antitumor effect (tumor volume)” value was “the antitumor effect was recognized”.

In the case of “DRQLQLSTLQRML (SEQ ID NO: 28) (ERAP1-scramble peptide) [reference compound]”, the “E2-dependent phosphorylation of six sites of ERα” value with ERα phosphorylation is “the suppression effect was not recognized”. The “transcriptional activity of ERα in ERE” value in data set [1] is reported as “no change was recognized”. Further, the “transcriptional activity of ERα in AP-1” value in data set [2] was “no change was recognized”. Also, in the data set with KPL-3C tumor (tumor removed day 14), the “Ser39 phosphorylation of PHB2/REA in the tumor” value was “the phosphorylation of PHB2/REA was not recognized” and the “expressions of ERα target genes PS2, cyclin D1, C-Myc, SP-1 in the tumor” value is recorded as “suppression for the expression was not recognized”. For the same molecule, in the data set with KPL-3C tumor (setting [3]), the “antitumor effect (tumor volume)” value is “significant tumor suppression effect was not recognized in any of the doses”.
